In one assay the test system is GP2D cells. In words: Ras cellular assay, cell proliferation GP2D. The class given is cell-based. In a few lines:
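Growth inhibition read by CellTiter-Glo luminescence roughly 5 days after compound addition, which followed overnight plating of G12D-mutant GP2D cells (e.g., 800 per well). Compounds were tested as a serial dilution (e.g., 9 points, 3-fold), with IC50 fitted by four-parameter model.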

The target in a further assay is T1, wildtype K-Ras (Homo sapiens, UniProt P01116).
T1 construct: made in house; host or cells: E. coli, e.g. BL21 (DE3)
T1 sequence (P01116 1-188 isoform P01116-2): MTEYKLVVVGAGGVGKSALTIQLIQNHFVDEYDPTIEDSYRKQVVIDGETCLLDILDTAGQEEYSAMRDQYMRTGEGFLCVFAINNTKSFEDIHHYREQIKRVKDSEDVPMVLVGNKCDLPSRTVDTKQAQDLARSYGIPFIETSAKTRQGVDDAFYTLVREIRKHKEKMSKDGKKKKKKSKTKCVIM
The assay can be described thus: PPI-HTRF assay, wildtype K-Ras / SOS1 interaction. Type of assay: biochemical. The note with it: HTRF, K-Ras wt; read-out: PPI-HTRF-5 nM (K-Ras wt IC50). The method in brief: (§1)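 GST-tagged K-Ras (WT or mutant) bound to anti-GST-Eu was mixed with His-hSOS1 bound to anti-6His-XL665 in pH 7.4 HEPES/NaCl/DTT/BSA/Igepal buffer. After ~10 min or longer, HTRF was read (ex 337 nm, em 620/665 nm). IC50 was derived from the 665/620 ratio, with duplicates tested from 10 μM down to 0.01 μM.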

The subject of a further assay is A549 cells. In words: Ras cellular assay, cell proliferation A549. Type of assay: cell-based. The following applies: Homo sapiens. The method in brief:
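G12S-mutant A549 cells (800/well) in RPMI-1640 plus 10% heat-inactivated FBS, standard or ultra-low attachment 384-well plates, dosed the day after plating with a 10-point 3-fold series. Viability by CellTiter-Glo luminescence about 6 days later; IC50 from four-parameter fit.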

A further assay concerns SW620 cells. In words: Ras cellular assay, cell proliferation SW620. Type of assay: cell-based. The note with it: Homo sapiens, SW-620. An excerpt: For example, this assay can be also used to assess selective growth inhibition of a mutant Ras protein relative to a wildtype, or relative to a different mutant Ras protein.
The target in another assay is T2, K-Ras G12D (Homo sapiens, UniProt P01116, G12D).
T2 construct: made in house; host or cells: E. coli, e.g. BL21 (DE3)
T2 sequence (P01116 1-188 isoform P01116-2 G12D): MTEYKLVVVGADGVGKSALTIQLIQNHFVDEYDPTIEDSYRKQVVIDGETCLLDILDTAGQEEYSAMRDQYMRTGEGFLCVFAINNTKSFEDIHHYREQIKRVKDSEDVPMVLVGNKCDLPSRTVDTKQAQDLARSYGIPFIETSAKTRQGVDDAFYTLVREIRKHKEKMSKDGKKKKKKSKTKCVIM
The assay can be described thus: PPI-HTRF assay, K-Ras G12D / SOS1 interaction. The following applies: HTRF, K-Ras G12D; read-out: PPI-HTRF-5 nM (K-Ras G12D IC50). Type of assay: biochemical. In a few lines:
as §1
For orientation: In TR-FRET formats the signal depends on donor and acceptor labels being close together.

Another assay concerns the target T3, K-Ras G12V (Homo sapiens, UniProt P01116, G12V).
T3 construct: made in house; host or cells: E. coli, e.g. BL21 (DE3)
In words: PPI-HTRF assay, K-Ras G12V / SOS1 interaction. Type of assay: biochemical. The following applies: HTRF, K-Ras G12V; read-out: PPI-HTRF-5 nM (K-Ras G12V IC50). The method in brief:
as §1

A further assay concerns the target T4, K-Ras G12S (Homo sapiens, UniProt P01116, G12S).
T4 construct: made in house; host or cells: E. coli, e.g. BL21 (DE3)
The assay can be described thus: PPI-HTRF assay, K-Ras G12S / SOS1 interaction. Type of assay: biochemical. The following applies: read-out: PPI-HTRF-5 nM (K-Ras G12S IC50). The method in brief: as §1

T3 sequence (P01116 1-188 isoform P01116-2 G12V): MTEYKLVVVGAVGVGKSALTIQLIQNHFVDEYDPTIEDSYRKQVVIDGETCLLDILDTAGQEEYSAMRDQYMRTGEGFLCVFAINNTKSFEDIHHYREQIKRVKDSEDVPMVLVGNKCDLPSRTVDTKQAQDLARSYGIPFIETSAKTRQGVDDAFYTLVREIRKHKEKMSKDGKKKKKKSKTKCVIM
T4 sequence (P01116 1-188 isoform P01116-2 G12S): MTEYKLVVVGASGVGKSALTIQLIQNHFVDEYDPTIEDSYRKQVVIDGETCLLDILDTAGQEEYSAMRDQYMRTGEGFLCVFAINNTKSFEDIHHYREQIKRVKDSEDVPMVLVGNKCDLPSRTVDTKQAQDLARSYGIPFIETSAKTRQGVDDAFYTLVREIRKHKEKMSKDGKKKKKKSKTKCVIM

In general, IC50 refers to the concentration that gives 50% inhibition. In the case of `N#Cc1c(N)sc2c(F)ccc(-c3c(Cl)c4c5c(nc(OC[C@@]67CCCN6C[C@H](F)C7)nc5c3F)N3CCC3CO4)c12` (stereo partly drawn) [compound 178, 2-amino-4-(6-chloro-4-fluoro-2-(((2R,7aS)-2-fluorotetrahydro-1H-pyrrolizin-7a(5H)-yl)methoxy)-8,8a,9,10-tetrahydroazeto[2′,1′:3,4][1,4]oxazepino [5,6,7-de]quinazolin-5-yl)-7-fluorobenzo[b]thiophene-3-carbonitrile], the IC50 with GP2D cells, at wildtype K-Ras, in the assay on A549 cells, with SW620 cells, at K-Ras G12D and on K-Ras G12V was under 5 µM each time. The IC50 at K-Ras G12S is under 5 µM.

For the compound `N#Cc1c(N)sc2c(F)ccc(-c3c(Cl)c4c5c(nc(OC[C@@]67CCCN6C[C@H](F)C7)nc5c3F)N3CC(F)(F)C[C@H]3CO4)c12` [compound 181], the 50% inhibitory concentration (IC50) in the assay on GP2D cells, at wildtype K-Ras, with A549 cells, with SW620 cells, on K-Ras G12D and at K-Ras G12V was under 5 µM in each case. Also, the IC50 on K-Ras G12S is under 5 µM.

In the case of `N#Cc1c(N)sc2c(F)ccc(-c3c(Cl)c4c5c(nc(OC[C@@]67CCCN6C[C@H](F)C7)nc5c3F)N3CCN(CC(F)F)CCC3CO4)c12` (stereo partly drawn) [compound 170, 2-amino-4-(6-chloro-11-(2,2-difluoroethyl)-4-fluoro-2-(((2R,7aS)-2-fluorotetrahydro-1H-pyrrolizin-7a(5H)-yl)methoxy)-8a,9,10,11,12,13-hexahydro-8H-[1,4]diazepino[7′,1′:3,4][1,4]oxazepino [5,6,7-de]quinazolin-5-yl)-7-fluorobenzo[b]thiophene-3-carbonitrile], the IC50 with GP2D cells, on wildtype K-Ras, in the assay on A549 cells, in the assay with SW620 cells, on K-Ras G12D and at K-Ras G12V was under 5 µM throughout. Moreover, the IC50 at K-Ras G12S was under 5 µM.

As for `N#Cc1c(N)sc2c(F)ccc(-c3c(Cl)c4c5c(nc(OC[C@@]67CCCN6C[C@H](F)C7)nc5c3F)N3C(CO)CCC3CO4)c12` (stereo partly drawn) [compound 185, 2-amino-4-(6-chloro-4-fluoro-2-(((2R,7aS)-2-fluorotetrahydro-1H-pyrrolizin-7a(5H)-yl)methoxy)-11-(hydroxymethyl)-8a,9,10,11-tetrahydro-8H-pyrrolo[2′,1′:3,4][1,4]oxazepino[5,6,7-de]quinazolin-5-yl)-7-fluorobenzo[b]thiophene-3-carbonitrile], the IC50 with GP2D cells, at wildtype K-Ras, with A549 cells, in the assay with SW620 cells, at K-Ras G12D and at K-Ras G12V was under 5 µM throughout. In addition, the IC50 on K-Ras G12S was under 5 µM.

Turning to `COCC1CCC2COc3c(Cl)c(-c4ccc(F)c5sc(N)c(C#N)c45)c(F)c4nc(OCC56CCCN5C[C@H](F)C6)nc(c34)N2C1` (stereo partly drawn) [compound 121, 2-amino-4-(6-chloro-4-fluoro-2-(((2R)-2-fluorotetrahydro-1H-pyrrolizin-7a(5H)-yl)methoxy)-11-(methoxymethyl)-8,8a,9,10,11,12-hexahydropyrido[2′,1′:3,4][1,4]oxazepino [5,6,7-de]quinazolin-5-yl)-7-fluorobenzo[b]thiophene-3-carbonitrile], the IC50 with GP2D cells, on wildtype K-Ras, with A549 cells, in the assay on SW620 cells, on K-Ras G12D and on K-Ras G12V was under 5 µM in each case. Moreover, the IC50 at K-Ras G12S was under 5 µM.

Turning to `N#Cc1c(N)sc2c(F)ccc(-c3c(Cl)c4c5c(nc(OC[C@@]67CCCN6C[C@H](F)C7)nc5c3F)N3CCC[C@@H]3CO4)c12` [compound 144, 2-amino-4-((12aR)-10-chloro-8-fluoro-6-(((2R,7aS)-2-fluorotetrahydro-1H-pyrrolizin-7a(5H)-yl)methoxy)-2,3,12,12a-tetrahydro-1H-pyrrolo[2′,1′:3,4][1,4]oxazepino[5,6,7-de]quinazolin-9-yl)-7-fluorobenzo[b]thiophene-3-carbonitrile], the IC50 in the assay with GP2D cells, on wildtype K-Ras, in the assay with A549 cells, in the assay with SW620 cells, at K-Ras G12D and at K-Ras G12V was under 5 µM each time. In addition, the half-inhibitory concentration (IC50) on K-Ras G12S was under 5 µM.

`N#Cc1c(N)sc2c(F)ccc(-c3c(Cl)c4c5c(nc(OCC67CCCN6C[C@H](F)C7)nc5c3F)N3CC(C#N)CCC3CO4)c12` (stereo partly drawn) [compound 150, 5-(2-amino-3-cyano-7-fluorobenzo[b]thiophen-4-yl)-6-chloro-4-fluoro-2-(((2R)-2-fluorotetrahydro-1H-pyrrolizin-7a(5H)-yl)methoxy)-8,8a,9,10,11,12-hexahydropyrido[2′,1′:3,4][1,4]oxazepino [5,6,7-de]quinazoline-11-carbonitrile]: the half-inhibitory concentration (IC50) in the assay with GP2D cells, on wildtype K-Ras, in the assay with A549 cells, with SW620 cells, on K-Ras G12D and on K-Ras G12V was under 5 µM each time. Also, the IC50 on K-Ras G12S was under 5 µM.

For the compound `CN1c2nc(OC[C@@]34CCCN3C[C@H](F)C4)nc3c(F)c(-c4ccc(F)c5sc(N)c(C#N)c45)c(Cl)c(c23)OCC2CN(C(=O)C(F)F)CC21` (stereo partly drawn) [compound 120, 2-amino-4-(6-chloro-10-(2,2-difluoroacetyl)-4-fluoro-2-(((2R,7aS)-2-fluorotetrahydro-1H-pyrrolizin-7a(5H)-yl)methoxy)-12-methyl-8a,9,10,11,11a,12-hexahydro-8H-pyrrolo[3′,4′:6,7][1,5]oxazocino[4,3,2-de]quinazolin-5-yl)-7-fluorobenzo[b]thiophene-3-carbonitrile], the IC50 in the assay on GP2D cells was under 5 µM; on wildtype K-Ras, under 5 µM; in the assay on A549 cells, over 5 µM; with SW620 cells, under 5 µM; at K-Ras G12D, under 5 µM; on K-Ras G12V it was under 5 µM. In addition, on K-Ras G12S, the IC50 is under 5 µM.

On to `N#Cc1c(N)sc2c(F)ccc(-c3c(Cl)c4c5c(nc(OC[C@@]67CCCN6C[C@H](F)C7)nc5c3F)N(CC(F)F)C3CNCC3O4)c12` (stereo partly drawn) [compound 175, 2-amino-4-(6-chloro-11-(2,2-difluoroethyl)-4-fluoro-2-(((2R,7aS)-2-fluorotetrahydro-1H-pyrrolizin-7a(5H)-yl)methoxy)-7a,8,9,10,10a,11-hexahydropyrrolo[3′,4′:2,3][1,4]oxazepino [5,6,7-de]quinazolin-5-yl)-7-fluorobenzo[b]thiophene-3-carbonitrile], for which the half-maximal inhibitory concentration (IC50) with GP2D cells, at wildtype K-Ras, in the assay on A549 cells, in the assay on SW620 cells, on K-Ras G12D and on K-Ras G12V was under 5 µM each time. At K-Ras G12S, the IC50 is under 5 µM.

With `CC1(O)CCN2c3nc(OC[C@@]45CCCN4C[C@H](F)C5)nc4c(F)c(-c5ccc(F)c6sc(N)c(C#N)c56)c(Cl)c(c34)OCC2C1` (stereo partly drawn) [compound 136, 2-amino-4-(3-chloro-1-fluoro-12-(((2R,7aS)-2-fluorotetrahydro-1H-pyrrolizin-7a(5H)-yl)methoxy)-7-hydroxy-7-methyl-5,5a,6,7,8,9-hexahydropyrido[2′,1′:3,4][1,4]oxazepino [5,6,7-de]quinazolin-2-yl)-7-fluorobenzo[b]thiophene-3-carbonitrile], the IC50 in the assay on GP2D cells, on wildtype K-Ras, in the assay with A549 cells, with SW620 cells, on K-Ras G12D and on K-Ras G12V was under 5 µM in each case. For the same compound, on K-Ras G12S, the IC50 was under 5 µM.

As for `N#Cc1c(N)sc2c(F)ccc(-c3c(Cl)c4c5c(nc(OCC67CCCN6C[C@H](F)C7)nc5c3F)N3CCCC[C@H]3CO4)c12` (stereo partly drawn) [compound 168, 2-amino-4-((5aS)-3-chloro-1-fluoro-12-(((2R,7aS)-2-fluorohexahydro-1H-pyrrolizin-7a-yl)methoxy)-5,5a,6,7,8,9-hexahydropyrido[2′,1′:3,4][1,4]oxazepino[5,6,7-de]quinazolin-2-yl)-7-fluorobenzo[b]thiophene-3-carbonitrile], the IC50 in the assay on GP2D cells, on wildtype K-Ras, with A549 cells, in the assay on SW620 cells, on K-Ras G12D and at K-Ras G12V was under 5 µM throughout. The IC50 on K-Ras G12S was under 5 µM.

These data come from patent US12059425B2, “Heterocyclic compounds and uses thereof” (Kumquat Biosciences Inc., priority 2022, dated 2024).
